# Test results published in patent publication US10080757B2 (WISCONSIN ALUMNI RESEARCH FOUNDATION, priority 2016, dated 2018).
# Like-named read-outs stand apart in the source and are kept apart here.
# What was measured:
# M. smegmatis [1] = assay: Microplate Alamar Blue Assay (MIC, liquid culture); assay type: cell-based; conditions: Mycolicibacterium smegmatis
# Description: The culture was diluted to OD600=˜0.02 in LB liquid media and added to 96-well plates at a final volume of 100 μL, with added inhibitor concentrations in two-fold dilutions. Perimeter wells were filled with sterile water. After 24 hours at 37° C. in a shaking incubator, 10 μL of the Alamar Blue reagent was added to each well. The plate was incubated for an additional 4 hours at 37° C., at which point fluorescence emission at 585 nm was measured using a plate reader. The lowest inhibitor concentration at which 99% or greater growth inhibition was observed was determined to be the MIC.
# C. elegans [2] = assay: C. elegans growth and proliferation; assay type: in vivo; conditions: for Effective inhibitor of C. elegans growth at 250 μM / Inhibition of C. elegans proliferation: 250 μM
# M. smegmatis [3] = assay: Agar disk diffusion assay; design: zone of inhibition: dose or concentration left out as unconfirmed; conditions: for zone of inhibition: Mycolicibacterium smegmatis, read-out: Inhibition zone; for Mycobacterial growth inhibition (in words): disk diffusion, solid media
# Description: M. smegmatis was grown to saturation over 48 hours at 37° C. in Middlebrook 7H9 media with Albumin Dextrose Catalase (ADC) enrichment and 0.05% Tween80. The culture was diluted to OD600=˜0.2 in LB liquid media and 100 μL of dilute culture was spread onto LB agar plates, then allowed to soak into the agar for 1 hour at room temperature. Sterile disks (3 mm diameter) were impregnated with a solution of inhibitor in DMSO (1.5 μL) and placed on top of the bacterial lawn. […] The plates were incubated for 72 hours at 37° C., at which point a lawn of bacteria was visible. Zones of inhibition were measured as the average diameter of the region around a cloning disk where bacterial growth was not visible. For each disk, three diameter measurements were taken and averaged.
# recombinant MtbUGM = biological target: T1, recombinant MtbUGM (Mycobacterium tuberculosis, UniProt P9WIQ1); assay: biochemical; conditions: for inhibition at 100 µM: read-out: % inhib MtbUGM (100 μM)
# T1 construct: made in house
# CeUGM = CeUGM inhibition; assay type: biochemical, C. elegans
# [4] = Aggregation by Dynamic Light Scattering (DLS); assay type: physicochemical; conditions: for Aggregates observed?: 50 mM sodium phosphate buffer, 1% DMSO
# Description: A representative subset of the compounds (1, 2, and 4) were evaluated for aggregation by Dynamic Light Scattering (DLS), see Table 1. Samples for DLS analysis were prepared in 50 mM sodium phosphate buffer from DMSO inhibitor stocks, at a final DMSO concentration of 1%, and a range of final concentrations of inhibitor.
# C. elegans [5] = assay: C. elegans growth and proliferation; assay type: in vivo; conditions: threshold below which proliferation occurs at decreased rate
# From the text: As concentration decreases, each of these compounds reaches a threshold where they no longer prevent worm proliferation, but rather cause retarded growth and development. The concentration that appears to be this threshold is reported above. Below this concentration, C. elegans growth and proliferation occur, but at a decreased rate with visible ill effects to the animal.
# [6] = Table 3, liquid media, at least 99% growth inhibition
# [7] = 50 μM compound (FIG. 1), read-out: Inhibition of MtbUGM activity
# [8] = Table 2, standard deviation, n = 3
# [9] = 50 μM, mean of two replicates, read-out: % inhib MtbUGM (50 μM)
# T1 sequence (P9WIQ1 whole entry): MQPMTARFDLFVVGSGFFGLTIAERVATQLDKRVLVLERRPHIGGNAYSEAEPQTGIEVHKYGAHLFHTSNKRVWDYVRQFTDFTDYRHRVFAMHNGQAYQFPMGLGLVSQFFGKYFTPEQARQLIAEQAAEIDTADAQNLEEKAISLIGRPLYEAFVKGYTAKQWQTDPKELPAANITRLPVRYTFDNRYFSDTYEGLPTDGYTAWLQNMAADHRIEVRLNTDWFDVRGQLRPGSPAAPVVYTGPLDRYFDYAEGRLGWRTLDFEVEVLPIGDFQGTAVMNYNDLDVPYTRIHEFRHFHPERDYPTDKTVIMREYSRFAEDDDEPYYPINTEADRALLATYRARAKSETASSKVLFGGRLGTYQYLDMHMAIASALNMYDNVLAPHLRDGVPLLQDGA
SMILES,MIC (M. smegmatis [1]; [6]) [µM],Effective inhibitor of C. elegans growth at 250 μM (C. elegans [2]; Table 7),zone of inhibition (M. smegmatis [3]) [mm],IC50 (recombinant MtbUGM; [8]) [µM],CeUGM % Inhibition at 2.5 μM (CeUGM) [%],Apparent MIC (μM) to inhibit C. elegans propagation (C. elegans [5]) [µM],Inhibition of C. elegans proliferation (C. elegans [2]),Effective inhibitor of C. elegans growth at 250 μM (C. elegans [2]; Table 8),"inhibition at 100 µM (recombinant MtbUGM; 100 μM, mean of two replicates) [%]",further results
"O=C(O)C(Cc1ccc(I)cc1)Nc1nc(-c2ccc(Cl)c(Cl)c2)cs1 (stereo not shown) [Compound 1, 2-((4-(3,4-Dichlorophenyl)thiazol-2-yl)amino)-3-(4-iodophenyl)propanoic acid]",50,No,5 ± 0.1,6,69.5 ± 1.2,,,,,inhibition at 50 µM (recombinant MtbUGM; [7]): > 90%; Aggregates observed? ([4]; Conc. 10 uM): No; Aggregates observed? ([4]; Conc. 25 uM): No; Aggregates observed? ([4]; Conc. 50 uM): No; Aggregates observed? ([4]; Conc. 100 uM): Yes; Aggregation by DLS ([4]; concentrations up to 50 μM): No aggregation was observed
"O=C(NS(=O)(=O)C(F)(F)F)C(Cc1ccc(I)cc1)Nc1nc(-c2ccc(Cl)c(Cl)c2)cs1 (stereo not shown) [Compound 3, 2-((4-(3,4-dichlorophenyl)thiazol-2-yl)amino)-3-(4-iodophenyl)-N-((trifluoromethyl)sulfonyl)propanamide]",50,Yes,7.7 ± 0.6,16 ± 10,84.8 ± 2.2,100,significantly inhibit,,,Prevention of C. elegans maturation to adulthood and eventual proliferation (C. elegans [2]; 100 μM): show the ability to prevent C. elegans maturation to adulthood and eventual proliferation
"O=C(NS(=O)(=O)c1ccc([N+](=O)[O-])cc1)C(Cc1ccc(I)cc1)Nc1nc(-c2ccc(Cl)c(Cl)c2)cs1 (stereo not shown) [Compound 5, 2-((4-(3,4-dichlorophenyl)thiazol-2-yl)amino)-3-(4-iodophenyl)-N-((4-nitrophenyl)sulfonyl)propanamide]",50,Yes,4.2 ± 0.3,4 ± 1,93.2 ± 0.1,125,significantly inhibit,,,
"COc1ccc(S(=O)(=O)NC(=O)C(Cc2ccc(I)cc2)Nc2nc(-c3ccc(Cl)c(Cl)c3)cs2)cc1 (stereo not shown) [Compound 6, 2-((4-(3,4-dichlorophenyl)thiazol-2-yl)amino)-3-(4-iodophenyl)-N-((4-methoxyphenyl)sulfonyl)propanamide]",25,No,6 ± 0.1,18 ± 9,92.4 ± 1.2,,,,,
"Cc1ccc(S(=O)(=O)NC(=O)C(Cc2ccc(I)cc2)Nc2nc(-c3ccc(Cl)c(Cl)c3)cs2)cc1 (stereo not shown) [Compound 7, 2-((4-(3,4-dichlorophenyl)thiazol-2-yl)amino)-3-(4-iodophenyl)-N-tosylpropanamide]",12.5,No,6 ± 0.6,1 ± 1,90.5 ± 0.2,,,,,Mycobacterial growth inhibition (in words) (M. smegmatis [3]): inactivity
"O=C(NS(=O)(=O)c1ccc(Cl)cc1)C(Cc1ccc(I)cc1)Nc1nc(-c2ccc(Cl)c(Cl)c2)cs1 (stereo not shown) [Compound 8, N-((4-chlorophenyl)sulfonyl)-2-((4-(3,4-dichlorophenyl)thiazol-2-yl)amino)-3-(4-iodophenyl)propanamide]",12.5,Yes,6.3 ± 0.6,3 ± 1,100 ± 0,250,significantly inhibit,,,
"O=C(NS(=O)(=O)c1ccccc1[N+](=O)[O-])C(Cc1ccc(I)cc1)Nc1nc(-c2ccc(Cl)c(Cl)c2)cs1 (stereo not shown) [Compound 9, 2-((4-(3,4-dichlorophenyl)thiazol-2-yl)amino)-3-(4-iodophenyl)-N-((2-nitrophenyl)sulfonyl)propanamide]",12.5,Yes,5.7 ± 0.1,2 ± 1,92.1 ± 1.0,125,significantly inhibit,,,
"COC(=O)C(Cc1ccc(I)cc1)Nc1nc(-c2ccc(Cl)c(Cl)c2)cs1 (stereo not shown) [Compound 10, Methyl 2-((4-(3,4-dichlorophenyl)thiazol-2-yl)amino)-3-(4-iodophenyl)propanoate]",,No,,,,,,,,Mycobacterial growth inhibition (in words) (M. smegmatis [3]): no mycobacterial growth inhibition was observed; inhibition at 50 µM (recombinant MtbUGM; [7]): 30%
"O=C(O)CC1Sc2nnc(Cc3ccc(Br)cc3)n2N=C1c1ccc(Cl)cc1 (stereo not shown) [Compound 11, 2-(3-(4-bromobenzyl)-6-(4-chlorophenyl)-7H-[1,2,4]triazolo[3,4-b][1,3,4]thiadiazin-7-yl)acetic acid]",,,,,,,,No,72,MIC (M. smegmatis [1]; Table 4): 500 µM; inhibition at 50 µM (recombinant MtbUGM; [9]): 36%; IC50 (recombinant MtbUGM; Table 4): 80 ± 29 µM; CeUGM % Inhibition at 10 μM (CeUGM): 53.5 ± 3.0%
"CS(=O)(=O)NC(=O)CC1Sc2nnc(Cc3ccc(Br)cc3)n2N=C1c1ccc(Cl)cc1 (stereo not shown) [Compound 12, 2-(3-(4-bromobenzyl)-6-(4-chlorophenyl)-7H-[1,2,4]triazolo[3,4-b][1,3,4]thiadiazin-7-yl)-N-(methylsulfonyl)acetamide]",,,,,,,,No,58,MIC (M. smegmatis [1]; Table 4): 500 µM; inhibition at 50 µM (recombinant MtbUGM; [9]): 50%; IC50 (recombinant MtbUGM; Table 4): 108 ± 42 µM; CeUGM % Inhibition at 10 μM (CeUGM): 68.1 ± 2.1%
"O=C(CC1Sc2nnc(Cc3ccc(Br)cc3)n2N=C1c1ccc(Cl)cc1)NS(=O)(=O)c1ccccc1 (stereo not shown) [Compound 13, 2-(3-(4-bromobenzyl)-6-(4-chlorophenyl)-7H-[1,2,4]triazolo[3,4-b][1,3,4]thiadiazin-7-yl)-N-(phenylsulfonyl)acetamide]",,,,,,250,significantly inhibit,Yes,94,MIC (M. smegmatis [1]; Table 4): 125 µM; inhibition at 50 µM (recombinant MtbUGM; [9]): 92%; IC50 (recombinant MtbUGM; Table 4): 19 ± 6 µM; CeUGM % Inhibition at 10 μM (CeUGM): 91.7 ± 0.5%
"COC(=O)CC1Sc2nnc(Cc3ccc(Br)cc3)n2N=C1c1ccc(Cl)cc1 (stereo not shown) [Compound 14, Methyl-2-(3-(4-bromobenzyl)-6-(4-chlorophenyl)-7H-[1,2,4]triazolo[3,4-b][1,3,4]thiadiazin-7-yl)acetate]",,,,,,,,No,0,
O=C(CC1Sc2nnc(Cc3ccc(-c4ccccc4)cc3)n2N=C1c1ccc(Cl)c(Cl)c1)NS(=O)(=O)c1ccccc1 (stereo not shown) [Compound 40],,,,,,,,,,inhibition at 10 µM (recombinant MtbUGM; read-out: % inhib MtbUGM (10 μM)): 85%; inhibition at 50 µM (recombinant MtbUGM; read-out: % inhib MtbUGM (50 μM)): 100%; inhibition at 100 µM (recombinant MtbUGM): 100%
